The values below come from patent US20160095843A1, “PYRAZOLOPYRROLIDINE DERIVATIVES AND THEIR USE IN THE TREATMENT OF DISEASE” (NOVARTIS AG, priority 2013, published 2016).

One experiment relates to THP-1 cells. In words: Cell growth inhibition assay (CellTiter-Glo), THP-1. Format: cell-based. The conditions noted are these: Homo sapiens. The method, boiled down:
(§1)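 Leukemia lines grown in their own media were exposed for 4 days at 37° C. to 3-fold serial dilutions from 10 μM (0.1% DMSO). Viability by CellTiter-Glo ATP luminescence, corrected for background and day-0 plate; IC50 and TGI from four-parameter fit against vehicle (100%) and medium (−100%).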

For experiment [1], the target named is T1, nuclear BRD4-NUT foci in HCC2494 NUT midline carcinoma cells (Homo sapiens, UniProt O60885+Q86Y26).
T1 construct: HCC2494 NUT midline carcinoma cells (expressing BRD4-NUT-fusion)
In words: Nut-foci formation assay. The conditions noted are these: 24 hours, NUT-foci per nucleus, read-out: HCS Brd4-NUT IC50. Type of experiment: cell-based. As to the method: HCC2494 NUT midline carcinoma cells (expressing BRD4-NUT-fusion) were obtained from the University of Texas Southwestern and cultured in RPMI-1640 medium containing 10% Foetal Calf Serum at 37° C. in a humidified 5% CO2 incubator.
Compound-mediated inhibition of BRD4 activity was monitored by quantification of the number and intensity of nuclear BRD4-NUT foci using automated immunofluorescence microscopy. Briefly, 5000 cells in 20 μL fresh medium were seeded into Poly-D-Lysine-precoated 384-well plates and incubated overnight at 37° C. and 5% CO2, followed by addition of 5 μl medium containing compound dilutions at 5-fold their final intended concentration. Dose-response effects were assessed by 3-fold serial dilutions of the test compound, starting at 10 μM. […] Assay plates were imaged using the appropriate filter sets on the Cellomics VTi automated fluorescence microscopy platform (ThermoFisher Scientific) and the population average of the number of NUT-foci per nucleus is quantified using the Cellomics Spot Detection BioApplication image analysis algorithm (ThermoFisher Scientific). The effect of a particular test compound concentration on NUT-foci number and intensity is expressed as percentage of the value obtained for cells treated with vehicle only (DMSO, 0.1% final concentration), which was set as 100. […]

Another experiment relates to K-562 cells. Kind of experiment: Cell growth inhibition assay (CellTiter-Glo), K-562. Type of experiment: cell-based, human. The conditions noted are these: Homo sapiens, K562. The method in brief: as §1
For another experiment, the system named is MV-4-11 cells. Kind of experiment: Cell growth inhibition assay (CellTiter-Glo), MV-4-11. Type of experiment: cell-based. The conditions noted are these: Homo sapiens, MV4-11. The method, boiled down:
as §1
On the technique in general: Cellular ATP, detected with luciferase, serves as a proxy for viable cell number.

A value given as a limit tells only on which side of the number the result lay.

The GI50 is the concentration that inhibits growth by half. Broadly, the IC50 is the concentration that inhibits the measured activity by half. On to `CNc1cc(N2C(=O)c3c(c(C)nn3C3CC3)C2c2ccc(Cl)cc2)nn2c(C)nnc12` (racemic) [Example 113, 4-(4-chlorophenyl)-1-cyclopropyl-3-methyl-5-(3-methyl-8-(methylamino)-[1,2,4]triazolo[4,3-b]pyridazin-6-yl)-4,5-dihydropyrrolo-[3,4-c]pyrazol-6(1H)-one], for which the GI50 was 112 nM in the experiment on THP-1 cells, 511 nM in the experiment on K-562 cells and 84 nM in the experiment with MV-4-11 cells. Besides, the IC (TGI) in the experiment with THP-1 cells is 234 nM; in the experiment on K-562 cells, > 10000 nM; in the experiment with MV-4-11 cells, 127 nM. In experiment [1], the IC50 turned out to be 151 nM.
